Columns and labels:
[1] = tested on: MCF7, T47D, and MDA-MB-231 cells; assay: Spheroid formation in ultra-low attachment plates, live cell count; format: cell-based; details: 0-3 μM, 5 days
Description: FIG. 6: IODVA1 inhibits cell-substratum and cell-cell interactions. (A) IODVA1 impedes spreading of MCF7 and MDA-MB-231 cells on fibronectin. MCF7, T47D, and MDA-MB-231 cells were incubated on fibronectin coated coverslips for 10 min, then further incubated with the indicated concentrations of IODVA1 for 30 min in serum-free media, fixed and observed by bright field microscopy. Areas of single cells were calculated from 6 random fields (no less than 300 cells total per treatment group). Results shown are mean±s.e.m. of a single experiment and are representative of three independent experiments. (B) Effects of IODVA1 treatment on spheroid formation in MCF10A, MCF7, T47D, and MDA-MB-231 cells. […] Aggregates and spheroids were dissociated with accutase and trituration, and the number of live cells was determined by trypan blue exclusion. […]
For the spheroid formation in the ultra-low attachment plates, MCF7, T47D, and MDA-MB-231 (5,000 cells) were incubated in complete media with IODVA1 at 0-3 μM for 5 days. Aggregates and spheroids were dissociated with Accutase and live cells were counted using trypan blue exclusion.
Spheroids were formed by the hanging drop method or using ultra-low attachment (ULA) plates (Corning). […] Spheroid formation was monitored daily and imaged using EVOS microscope (Life Technologies). […]

RhoGDI1 = target: T1, RhoGDI1 (Homo sapiens, UniProt P52565); assay: RhoGDI1 extraction of / interaction with Rac1 (liposome sedimentation, stopped-flow); format: biochemical
T1 construct: made in house; host or cells: Rac1: TNAO38 insect cells (baculovirus)

p50GAP = p50GAP (Homo sapiens, UniProt Q07960); assay: p50GAP-stimulated GTP-hydrolysis, stopped-flow; format: biochemical
[2] = tested on: p190- and p210-BCR-ABL1 expressing Ba/F3 cells; assay: Cell survival, trypan blue exclusion; format: cell-based, murine; details: Mus musculus, BaF3; read-out: half maximal effective concentration (EC50), survival
Description: (B) IODVA1-dependent survival curves of empty vector (red circles) or p190-BCR-ABL1 (black circles) expressing Ba/F3 cells and of Nalm-1 cells. […] (C) p190-BCR-ABL1 (grey line) or Mieg3 (black line) expressing Ba/F3 cells were allowed to grow for 1 day, treated with IODVA1 (IO1, 1 μM) for 1 day, and washed (black arrow). Cells were counted for 7 days using trypan blue exclusion. (D) Ba/F3 cells stably expressing p190-BCR-ABL1 were subjected to colony formation assay in soft agar (0.25% Noble Agar in RPMI/FBS/IL-3) in the presence of DMSO or IODVA1 (1 or 10 μM). Colonies were allowed to form for 10 days then stained with iodonitrotetrazolium (1 mg/mL). […] (E) Leukemic burden (%) of treated mice before treatment (left upper panel) and at the indicated treatment time was analyzed by flow cytometry of bone marrow aspirates as population containing B220^+/CD43^+ pro-B cells. […]
IODVA1 specifically targets BCR-ABL B-ALL cells in vitro. […] We then assessed survival of p190-BCR-ABL-transformed CD34^+ cells in the presence of IODVA1 by trypan blue exclusion. […]
MDA-MB-231 cells were maintained in IMEM (Invitrogen) supplemented with 10% FBS, 1% penicillin/streptomycin, and 1% amphotericin B. B a/F3 cells were cultured in RPMI (GIBCO) supplemented with 10% FBS and IL-3 (10 ng/ml). […] Cell viability was assessed by trypan blue exclusion assay as previously described. […]

T1 sequence (P52565 whole entry, species assumed): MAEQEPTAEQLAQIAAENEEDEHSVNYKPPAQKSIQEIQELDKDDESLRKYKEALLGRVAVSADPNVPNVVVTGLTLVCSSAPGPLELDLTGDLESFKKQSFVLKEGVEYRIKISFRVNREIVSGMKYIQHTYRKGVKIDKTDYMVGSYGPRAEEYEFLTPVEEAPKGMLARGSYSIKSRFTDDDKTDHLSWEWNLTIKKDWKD
Chain of p50GAP (Q07960 whole entry): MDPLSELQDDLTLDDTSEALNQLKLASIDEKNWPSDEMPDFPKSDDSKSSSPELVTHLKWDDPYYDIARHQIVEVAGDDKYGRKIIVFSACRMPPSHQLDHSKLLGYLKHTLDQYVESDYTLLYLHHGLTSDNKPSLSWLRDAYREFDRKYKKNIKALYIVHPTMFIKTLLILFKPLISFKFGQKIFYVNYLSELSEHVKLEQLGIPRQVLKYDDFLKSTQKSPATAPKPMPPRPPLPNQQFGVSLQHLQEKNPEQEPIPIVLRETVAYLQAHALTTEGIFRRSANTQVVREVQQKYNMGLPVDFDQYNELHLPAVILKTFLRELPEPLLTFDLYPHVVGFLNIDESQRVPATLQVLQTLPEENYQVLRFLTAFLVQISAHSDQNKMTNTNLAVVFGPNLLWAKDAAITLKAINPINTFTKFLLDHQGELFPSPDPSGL

OC1(c2ccccn2)N=C(Nc2nc3ccccc3[nH]2)N=C1c1ccccn1 (stereo not shown) [IODVA1, (Z)-2-((1H-benzo[d]imidazol-2-yl)imino)-4,5-di(pyridin-2-yl)-2,5-dihydro-1H-imidazol-5-ol]
number of live cells in a spheroid [1]: significantly decreased
stimulation of the activity of RhoGDI1 (RhoGDI1): does not stimulate
stimulation of the activity of p50GAP (p50GAP): does not stimulate
EC50 [2]: 0.38 µM
